Where two headings read alike, the source gives them in different places.
Key:
A375 cells = assay: A375 Cell Proliferation Assay (1); assay type: cell-based; conditions: Homo sapiens, A-375
Method in brief: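 Resazurin fluorescence (excitation 540 nm, emission 600 nm, after a further 5-6 h) gave IC50s from triplicate compound dilution series.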

[1] = biological target: A-Raf kinase (SEQ. ID No: 1) (Homo sapiens (Human), UniProt P10398, Y301D/Y302D); assay: Biochemical Assay for A-Raf (1); conditions: Table J
Method in brief: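 IC50 values were derived by four-parameter sigmoidal fitting of percent inhibition, calculated from reaction rates over the 4–5 h window. Absorbance at 340 nm was tracked for 6 h at 30 °C via coupled PK/LDH NADH depletion. Conditions: 1 mM ATP, 30.1 nM MEK substrate, 5.55 nM A-Raf (Y301D/Y302D), Tris pH 7.5, 1% DMSO.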

[2] = biological target: C-Raf kinase (SEQ. ID NO: 3) (Homo sapiens (Human), UniProt P04049, Y340D/Y341D); assay: Biochemical Assay for C-Raf (1); conditions: Table J
Method in brief: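 IC50 values come from a four-parameter fit of percent inhibition, using the reaction rate over 4–5 h of a 6 h continuous 340 nm read at 30 °C. The enzyme mix was C-Raf 0.43 nM, MEK substrate 30.1 nM and ATP 1 mM, in a PK/LDH NADH-coupled format in Tris pH 7.5 with 1% DMSO.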

WM3928 cells = assay: WM3928 Cell Proliferation Assay (1); assay type: cell-based
Method in brief: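 IC50 was derived from resazurin fluorescence (ex 540, em 600 nm) after a 6–7 h dye incubation. Before that, cells had 67–72 h of compound exposure at 37 °C, 5% CO2.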

[3] = assay version (1), read-out: ARAF (1) IC50
[4] = assay version (1), read-out: CRAF (1) IC50
[5] = biochemical assay (1), read-out: ARAF (1)
[6] = biochemical assay (1), read-out: CRAF (1)

Chain of C-Raf kinase (SEQ. ID NO: 3) (P04049 307-648 Y340D/Y341D): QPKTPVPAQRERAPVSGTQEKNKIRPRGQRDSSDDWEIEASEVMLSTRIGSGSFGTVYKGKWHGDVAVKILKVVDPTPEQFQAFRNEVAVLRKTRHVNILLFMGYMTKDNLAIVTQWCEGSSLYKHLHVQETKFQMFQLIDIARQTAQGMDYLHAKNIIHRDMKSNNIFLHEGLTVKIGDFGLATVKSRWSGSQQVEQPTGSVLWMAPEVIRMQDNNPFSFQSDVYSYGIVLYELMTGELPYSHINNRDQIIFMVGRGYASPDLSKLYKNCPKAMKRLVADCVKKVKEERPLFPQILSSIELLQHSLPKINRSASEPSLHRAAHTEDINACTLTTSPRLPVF
Chain of A-Raf kinase (SEQ. ID No: 1) (P10398 other isoform, or with tags, fused parts or gaps Y301D (already in the parent)/Y302D (already in the parent)): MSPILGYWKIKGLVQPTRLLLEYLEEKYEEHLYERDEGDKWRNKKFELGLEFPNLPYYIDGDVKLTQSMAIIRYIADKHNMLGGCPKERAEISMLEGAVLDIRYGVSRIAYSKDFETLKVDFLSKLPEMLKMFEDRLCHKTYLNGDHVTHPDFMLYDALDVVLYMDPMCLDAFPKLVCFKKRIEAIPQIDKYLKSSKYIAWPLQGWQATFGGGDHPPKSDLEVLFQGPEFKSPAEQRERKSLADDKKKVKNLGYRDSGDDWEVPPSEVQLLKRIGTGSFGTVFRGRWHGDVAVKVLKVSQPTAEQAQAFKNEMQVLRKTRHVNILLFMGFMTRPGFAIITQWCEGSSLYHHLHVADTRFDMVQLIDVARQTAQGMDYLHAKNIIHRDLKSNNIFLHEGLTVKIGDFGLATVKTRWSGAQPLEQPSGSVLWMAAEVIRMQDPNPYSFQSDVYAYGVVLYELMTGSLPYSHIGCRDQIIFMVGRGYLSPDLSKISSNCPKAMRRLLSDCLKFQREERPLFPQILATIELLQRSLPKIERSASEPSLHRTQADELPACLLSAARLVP

CNC(=O)c1cc(-c2cc(-c3cc(NC(=O)c4ccnc(C)c4)ccc3C)ncn2)ccn1 [Example 60]
IC50 (A375 cells): 1 to 10 µM | IC50 [1, 3]: 1 to 10 µM | IC50 [2, 4]: ≤ 0.1 µM

COCC(=O)Nc1cc(-c2cc(-c3cc(NC(=O)c4ccnc(C(C)(C)C#N)c4)ccc3C)ccn2)ccn1 [Example 61]
IC50 (A375 cells): ≤ 0.1 µM | IC50 [1, 3]: 1 to 10 µM | IC50 [2, 4]: ≤ 0.1 µM

Cc1ccc(NC(=O)c2ccnc(C(F)(F)F)c2)cc1-c1cccc(-c2ccnc(NC(=O)CC#N)c2)c1 [Example 62]
IC50 (A375 cells): 0.1 to 0.5 µM | IC50 [1, 3]: 0.1 to 0.5 µM | IC50 [2, 4]: ≤ 0.1 µM

Cc1ccc(NC(=O)c2ccnc(C(C)(C)C#N)c2)cc1-c1ccnc(-c2ccnc(NC(=O)CC#N)c2)c1 [Example 63]
IC50 (A375 cells): 0.1 to 0.5 µM | IC50 (WM3928 cells): ≤ 0.1 µM | IC50 [1, 3]: 0.5 to 1 µM | IC50 [2, 4]: ≤ 0.1 µM

CC(=O)Nc1cc(-c2cccc(-c3cc(NC(=O)c4ccnc(C(F)(F)F)c4)cnc3C)c2)ccn1 [Example 64]
IC50 (A375 cells): 0.1 to 0.5 µM | IC50 [1, 3]: 1 to 10 µM | IC50 [2, 4]: ≤ 0.1 µM

CC(=O)Nc1cc(-c2cc(-c3cc(NC(=O)c4ccnc(C(F)(F)F)c4)ccc3F)cc(C)n2)ccn1 [Example 65]
IC50 (A375 cells): 0.5 to 1 µM | IC50 [1, 3]: 1 to 10 µM | IC50 [2, 4]: ≤ 0.1 µM

Cc1ncc(NC(=O)c2ccnc(C(F)(F)F)c2)cc1-c1cccc(-c2ccnc(NC(=O)C3CC3)c2)c1 [Example 70]
IC50 (A375 cells): 0.1 to 0.5 µM | IC50 [1, 3]: 0.5 to 1 µM | IC50 [2, 4]: ≤ 0.1 µM

CNC(=O)c1cc(-c2cccc(-c3cc(NC(=O)c4ccnc(C(F)(F)F)c4)cnc3C)c2)ccn1 [Example 73]
IC50 (A375 cells): 1 to 10 µM | IC50 [1, 3]: 1 to 10 µM | IC50 [2, 4]: ≤ 0.1 µM

CC(=O)Nc1cc(-c2cc(-c3cc(NC(=O)c4ccnc(C(C)(C)C#N)c4)c(F)cc3C)ccn2)ccn1 [Example 75]
IC50 (A375 cells): ≤ 0.1 µM | IC50 [1, 3]: 1 to 10 µM | IC50 [2, 4]: ≤ 0.1 µM

Cc1cc(F)c(NC(=O)c2ccnc(C(C)(C)C#N)c2)cc1-c1ccnc(-c2ccnc(NC(=O)C3CC3)c2)c1 [Example 76]
IC50 (A375 cells): ≤ 0.1 µM | IC50 [1, 3]: 1 to 10 µM | IC50 [2, 4]: ≤ 0.1 µM

CC(=O)Nc1cc(-c2cccc(-c3cc(NC(=O)c4ccnc(C(C)(C)C#N)c4)ccc3C)c2)ncn1 [Example 79]
IC50 (A375 cells): ≤ 0.1 µM | IC50 [1, 3]: 1 to 10 µM | IC50 [2, 4]: ≤ 0.1 µM

CNC(=O)c1cc(-c2cncc(-c3cc(C(=O)Nc4cnn(C(C)C)c4)ccc3C)n2)ccn1 [Example 81]
IC50 (A375 cells): 1 to 10 µM | IC50 [1, 3]: 1 to 10 µM | IC50 [2, 4]: 0.1 to 0.5 µM

CC(=O)Nc1cc(-c2cc(-c3cc(NC(=O)c4ccnc(C(F)(F)F)c4)ccc3C)nc(C)n2)ccn1 [Example 83]
IC50 (A375 cells): 0.1 to 0.5 µM | IC50 [1, 3]: 1 to 10 µM | IC50 [2, 4]: ≤ 0.1 µM

CC(=O)Nc1cc(-c2cc(-c3cc(NC(=O)c4ccnc(C(F)(F)F)c4)ccc3C)ncn2)ccn1 [Example 84]
IC50 (A375 cells): 0.1 to 0.5 µM | IC50 [1, 3]: 1 to 10 µM | IC50 [2, 4]: ≤ 0.1 µM

CC(=O)Nc1cc(-c2cncc(-c3cc(C(=O)Nc4cnn(C(C)C)c4)ccc3C)n2)ccn1 [Example 87]
IC50 (A375 cells): 0.5 to 1 µM | IC50 [1, 3]: 1 to 10 µM | IC50 [2, 4]: ≤ 0.1 µM

Cc1ccc(NC(=O)c2ccnc(C(F)(F)F)c2)cc1-c1cncc(-c2ccnc(N)c2)n1 [Example 90]
IC50 (A375 cells): 1 to 10 µM | IC50 [1, 3]: 1 to 10 µM | IC50 [2, 4]: ≤ 0.1 µM

CC(=O)Nc1cc(-c2ccnc(-c3cc(NC(=O)c4ccnc(C(F)(F)F)c4)ccc3C)n2)ccn1 [Example 92]
IC50 (A375 cells): 0.1 to 0.5 µM | IC50 [1, 3]: 0.1 to 0.5 µM | IC50 [2, 4]: ≤ 0.1 µM

Cc1ccc(NC(=O)c2cn(C(C)C)nc2C)cc1-c1cc(-c2ccnc(NC(=O)C3CC3)c2)cnn1 [Example 373]
IC50 (A375 cells): 1 to 10 µM | IC50 [1, 5]: 1 to 10 µM | IC50 [2, 6]: ≤ 0.1 µM

CNC(=O)c1cc(-c2cnnc(-c3cc(NC(=O)CCC4(F)CC4)cnc3C)c2)ccn1 [Example 374]
IC50 (A375 cells): 1 to 10 µM | IC50 [1, 5]: 1 to 10 µM | IC50 [2, 6]: 1 to 10 µM

Cc1ccc(NC(=O)c2cnn(CC(F)(F)F)c2)cc1-c1cncc(-c2ccnc(C(N)=O)c2)c1 [Example 381]
IC50 (A375 cells): 1 to 10 µM | IC50 [1, 5]: 1 to 10 µM | IC50 [2, 6]: ≤ 0.1 µM

CNC(=O)c1cc(-c2cncc(-c3cc(NC(=O)c4cnn(CC(F)(F)F)c4)ccc3C)c2)ncn1 [Example 382]
IC50 (A375 cells): 1 to 10 µM | IC50 [1, 5]: 1 to 10 µM | IC50 [2, 6]: ≤ 0.1 µM

CNC(=O)c1cc(-c2cncc(-c3cc(NC(=O)Cn4cc(C(C)C)nn4)ccc3C)c2)ncn1 [Example 383]
IC50 (A375 cells): 1 to 10 µM | IC50 [1, 5]: 1 to 10 µM | IC50 [2, 6]: 0.1 to 0.5 µM
